In ChEMBL document CHEMBL5523736, “The First Discovery of Marine Polyoxygenated Cembranolides as Potential Agents for the Treatment of Ulcerative Colitis” (J Med Chem, 2024):
Calls of active or inactive are those of the source. The calls are words filed in the database; no cut-off is given here.

Target: c-Jun N-terminal kinase (Mus musculus) (UniProt Q91Y86+Q9WTU6+Q61831)
Assay: Inhibition of JNK phosphorylation in LPS-induced mouse RAW264.7 cells at 20 uM by Western blot analysis
Type: cell-based
Settings: not given

Sequence of c-Jun N-terminal kinase (Mus musculus) (Q61831 whole entry, looked up): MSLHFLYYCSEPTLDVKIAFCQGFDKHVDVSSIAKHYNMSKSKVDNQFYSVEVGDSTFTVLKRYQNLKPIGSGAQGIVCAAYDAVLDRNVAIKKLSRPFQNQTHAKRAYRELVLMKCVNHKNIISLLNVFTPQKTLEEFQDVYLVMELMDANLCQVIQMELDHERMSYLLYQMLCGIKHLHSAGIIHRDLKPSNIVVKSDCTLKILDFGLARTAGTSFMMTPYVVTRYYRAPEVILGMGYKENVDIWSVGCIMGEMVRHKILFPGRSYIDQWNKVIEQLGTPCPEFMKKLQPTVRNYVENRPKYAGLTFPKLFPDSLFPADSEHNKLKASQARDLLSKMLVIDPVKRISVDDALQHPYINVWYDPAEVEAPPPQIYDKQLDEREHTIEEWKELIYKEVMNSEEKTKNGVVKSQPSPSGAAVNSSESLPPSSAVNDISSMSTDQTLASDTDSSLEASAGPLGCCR
Sequence of c-Jun N-terminal kinase (Mus musculus) (Q91Y86 whole entry, looked up): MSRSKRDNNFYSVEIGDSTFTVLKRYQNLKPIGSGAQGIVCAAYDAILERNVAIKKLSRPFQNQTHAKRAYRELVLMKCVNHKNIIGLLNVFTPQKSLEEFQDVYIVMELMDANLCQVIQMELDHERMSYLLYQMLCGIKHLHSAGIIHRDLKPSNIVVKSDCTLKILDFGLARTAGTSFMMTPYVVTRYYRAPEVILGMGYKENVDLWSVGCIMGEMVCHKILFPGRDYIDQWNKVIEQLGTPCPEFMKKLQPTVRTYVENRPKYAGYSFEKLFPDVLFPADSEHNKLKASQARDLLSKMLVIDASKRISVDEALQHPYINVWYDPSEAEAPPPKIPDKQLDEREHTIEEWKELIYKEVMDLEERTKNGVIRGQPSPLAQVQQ
Sequence of c-Jun N-terminal kinase (Mus musculus) (Q9WTU6 whole entry, looked up): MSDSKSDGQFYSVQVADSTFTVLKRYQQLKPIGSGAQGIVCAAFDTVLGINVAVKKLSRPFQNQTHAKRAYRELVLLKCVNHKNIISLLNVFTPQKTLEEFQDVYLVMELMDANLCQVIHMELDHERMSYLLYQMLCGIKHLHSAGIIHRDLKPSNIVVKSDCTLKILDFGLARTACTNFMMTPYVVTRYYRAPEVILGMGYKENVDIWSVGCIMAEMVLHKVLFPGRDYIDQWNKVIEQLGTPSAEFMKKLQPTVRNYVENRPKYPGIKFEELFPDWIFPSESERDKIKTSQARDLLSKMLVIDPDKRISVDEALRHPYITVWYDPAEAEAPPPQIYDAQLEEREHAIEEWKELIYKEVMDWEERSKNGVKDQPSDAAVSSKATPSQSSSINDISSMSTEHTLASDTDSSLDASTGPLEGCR

SMILES | inhibition
C=C1C(=O)O[C@]2(C)CC[C@@H]1C[C@@H]1O[C@@]1(C)CC/C=C(\C)CC[C@H]2OC(C)=O | Active

Tested on: RAW264.7
Assay: Antiinflammatory activity in mouse RAW264.7 cells assessed as inhibition of LPS-induced NO production at 20 uM incubated for 24 hrs relative to control
Type: functional
Settings: not given

SMILES | inhibition at 20 µM [%]
C=C1C(=O)O[C@]2(C)CC[C@@H]1C[C@H](OC(C)=O)[C@@]1(C)CC[C@H](O1)C(=C)CC[C@H]2OC(C)=O [GRANOSOLIDE B] | 56
C=C(C(=O)OC)[C@@H]1CC[C@@](C)(O)[C@@H](OC(C)=O)CC/C(C)=C/C/C=C(\C)[C@H](O)C1 | 55.7
C=C1C(=O)O[C@]2(C)CC[C@@H]1C[C@@H]1O[C@@]1(C)CC/C=C(\C)CC[C@H]2OC(C)=O | 139

Tested on: Mus musculus
Assay: Antiinflammatory activity against DSS-induced ulcerative colitis C57BL/6J mouse model assessed as reduction in intestinal epithelial destruction in colon at 15 mg/kg, po administered for 8 days by Hand E staining based histopathological analysis
Type: functional, organism-based
Settings: time 8.0 day

SMILES | Activity
C=C1C(=O)O[C@]2(C)CC[C@@H]1C[C@@H]1O[C@@]1(C)CC/C=C(\C)CC[C@H]2OC(C)=O | Active

Tested on: Mus musculus
Assay: Antiinflammatory activity against DSS-induced ulcerative colitis C57BL/6J mouse model assessed as reduction in TNF-alpha mRNA expression level in colon at 15 mg/kg, po administered for 8 days by qRT-PCR analysis
Type: functional, organism-based
Settings: time 8.0 day

SMILES | Activity
C=C1C(=O)O[C@]2(C)CC[C@@H]1C[C@@H]1O[C@@]1(C)CC/C=C(\C)CC[C@H]2OC(C)=O | Active

Tested on: RAW264.7
Assay: Antiinflammatory activity in LPS-induced mouse RAW264.7 cells assessed as reduction in iNOS mRNA expression level at 20 uM by qRT-PCR analysis
Type: functional, cell-based
Settings: not given

SMILES | Activity
C=C1C(=O)O[C@]2(C)CC[C@@H]1C[C@@H]1O[C@@]1(C)CC/C=C(\C)CC[C@H]2OC(C)=O | Active

Tested on: Mus musculus
Assay: Antiinflammatory activity against DSS-induced ulcerative colitis C57BL/6J mouse model assessed as reduction in goblet cell loss in colon at 15 mg/kg, po administered for 8 days by alcian blue staining based analysis
Type: functional, organism-based
Settings: time 8.0 day

SMILES | Activity
C=C1C(=O)O[C@]2(C)CC[C@@H]1C[C@@H]1O[C@@]1(C)CC/C=C(\C)CC[C@H]2OC(C)=O | Active

Tested on: RAW264.7
Assay: Antiinflammatory activity in LPS-induced mouse RAW264.7 cells assessed as inhibition of TNF-alpha production at 20 uM by ELISA
Type: functional, cell-based
Settings: not given

SMILES | Activity
C=C1C(=O)O[C@]2(C)CC[C@@H]1C[C@@H]1O[C@@]1(C)CC/C=C(\C)CC[C@H]2OC(C)=O | Active

Tested on: RAW264.7
Assay: Inhibition of P38 phosphorylation in LPS-induced mouse RAW264.7 cells at 20 uM by Western blot analysis
Type: cell-based
Settings: not given

SMILES | inhibition
C=C1C(=O)O[C@]2(C)CC[C@@H]1C[C@@H]1O[C@@]1(C)CC/C=C(\C)CC[C@H]2OC(C)=O | inactive

Tested on: Mus musculus
Assay: Antiinflammatory activity against DSS-induced ulcerative colitis C57BL/6J mouse model assessed as reduction in inflammatory cell infiltration in colon at 15 mg/kg, po administered for 8 days by Hand E staining based histopathological analysis
Type: functional, organism-based
Settings: time 8.0 day

SMILES | Activity
C=C1C(=O)O[C@]2(C)CC[C@@H]1C[C@@H]1O[C@@]1(C)CC/C=C(\C)CC[C@H]2OC(C)=O | Active

Tested on: Mus musculus
Assay: Antiinflammatory activity against DSS-induced ulcerative colitis C57BL/6J mouse model assessed as reduction in DAI score at 15 mg/kg, po administered for 8 days
Type: functional, organism-based
Settings: time 8.0 day

SMILES | Activity
C=C1C(=O)O[C@]2(C)CC[C@@H]1C[C@@H]1O[C@@]1(C)CC/C=C(\C)CC[C@H]2OC(C)=O | Active

Tested on: RAW264.7
Assay: Inhibition of NF-kappaB transcriptional activity in LPS-induced mouse RAW264.7 cells at 20 uM by luciferase based assay
Type: cell-based
Settings: not given

SMILES | inhibition
C=C1C(=O)O[C@]2(C)CC[C@@H]1C[C@@H]1O[C@@]1(C)CC/C=C(\C)CC[C@H]2OC(C)=O | Active

Tested on: RAW264.7
Assay: Antiinflammatory activity in LPS-induced mouse RAW264.7 cells assessed as reduction in TNF-alpha mRNA expression level at 20 uM by qRT-PCR analysis
Type: functional, cell-based
Settings: not given

SMILES | Activity
C=C1C(=O)O[C@]2(C)CC[C@@H]1C[C@@H]1O[C@@]1(C)CC/C=C(\C)CC[C@H]2OC(C)=O | Active

Tested on: Mus musculus
Assay: Antiinflammatory activity against DSS-induced ulcerative colitis C57BL/6J mouse model assessed as increase in CLAUDIN-1 protein level in colon at 15 mg/kg, po administered for 8 days by Western blot analysis
Type: functional, organism-based
Settings: time 8.0 day

SMILES | Activity
C=C1C(=O)O[C@]2(C)CC[C@@H]1C[C@@H]1O[C@@]1(C)CC/C=C(\C)CC[C@H]2OC(C)=O | Active

Tested on: Mus musculus
Assay: Effect on DSS-induced body weight loss in ulcerative colitis male C57BL/6J mouse model at 15 mg/kg, po administered for 8 days
Type: functional, organism-based
Settings: time 8.0 day

SMILES | Activity
C=C1C(=O)O[C@]2(C)CC[C@@H]1C[C@@H]1O[C@@]1(C)CC/C=C(\C)CC[C@H]2OC(C)=O | inactive

Tested on: Mus musculus
Assay: Antiinflammatory activity against DSS-induced ulcerative colitis C57BL/6J mouse model assessed as reduction in iNOS mRNA expression level in colon at 15 mg/kg, po administered for 8 days by qRT-PCR analysis
Type: functional, organism-based
Settings: time 8.0 day

SMILES | Activity
C=C1C(=O)O[C@]2(C)CC[C@@H]1C[C@@H]1O[C@@]1(C)CC/C=C(\C)CC[C@H]2OC(C)=O | Active

Tested on: RAW264.7
Assay: Antiinflammatory activity in LPS-induced mouse RAW264.7 cells assessed as inhibition of IL-6 production at 20 uM by ELISA
Type: functional, cell-based
Settings: not given

SMILES | Activity
C=C1C(=O)O[C@]2(C)CC[C@@H]1C[C@@H]1O[C@@]1(C)CC/C=C(\C)CC[C@H]2OC(C)=O | Active

Tested on: RAW264.7
Assay: Inhibition of ERK phosphorylation in LPS-induced mouse RAW264.7 cells at 20 uM by Western blot analysis
Type: cell-based
Settings: not given

SMILES | inhibition
C=C1C(=O)O[C@]2(C)CC[C@@H]1C[C@@H]1O[C@@]1(C)CC/C=C(\C)CC[C@H]2OC(C)=O | Active

Tested on: Mus musculus
Assay: Antiinflammatory activity against DSS-induced ulcerative colitis C57BL/6J mouse model assessed as increase in OCCLUDIN protein level in colon at 15 mg/kg, po administered for 8 days by Western blot analysis
Type: functional, organism-based
Settings: time 8.0 day

SMILES | Activity
C=C1C(=O)O[C@]2(C)CC[C@@H]1C[C@@H]1O[C@@]1(C)CC/C=C(\C)CC[C@H]2OC(C)=O | Active

Tested on: RAW264.7
Assay: Antiinflammatory activity in LPS-induced mouse RAW264.7 cells assessed as reduction in IL-1beta mRNA expression level at 20 uM by qRT-PCR analysis
Type: functional, cell-based
Settings: not given

SMILES | Activity
C=C1C(=O)O[C@]2(C)CC[C@@H]1C[C@@H]1O[C@@]1(C)CC/C=C(\C)CC[C@H]2OC(C)=O | Active

Target: Transcription factor p65 (Mus musculus) (UniProt Q04207)
Assay: Inhibition of p65 activation in LPS-induced mouse RAW264.7 cells at 20 uM by Western blot analysis
Type: cell-based
Settings: not given

Sequence of Transcription factor p65 (Mus musculus) (Q04207 whole entry): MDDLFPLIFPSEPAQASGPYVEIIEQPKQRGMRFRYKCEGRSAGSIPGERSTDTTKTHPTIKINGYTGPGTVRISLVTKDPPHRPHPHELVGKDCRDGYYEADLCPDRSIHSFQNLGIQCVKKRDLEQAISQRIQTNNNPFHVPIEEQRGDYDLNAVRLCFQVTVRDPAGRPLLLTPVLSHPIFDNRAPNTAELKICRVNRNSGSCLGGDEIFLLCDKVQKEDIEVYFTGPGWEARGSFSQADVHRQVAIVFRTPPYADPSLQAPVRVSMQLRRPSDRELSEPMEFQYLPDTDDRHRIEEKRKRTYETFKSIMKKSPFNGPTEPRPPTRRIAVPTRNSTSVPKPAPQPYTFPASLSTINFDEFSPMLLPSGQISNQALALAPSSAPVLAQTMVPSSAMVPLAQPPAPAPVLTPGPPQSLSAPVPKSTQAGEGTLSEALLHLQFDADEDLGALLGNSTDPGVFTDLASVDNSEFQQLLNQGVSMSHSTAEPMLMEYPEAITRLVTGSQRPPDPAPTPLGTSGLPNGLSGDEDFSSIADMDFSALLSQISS

SMILES | inhibition
C=C1C(=O)O[C@]2(C)CC[C@@H]1C[C@@H]1O[C@@]1(C)CC/C=C(\C)CC[C@H]2OC(C)=O | Active

Tested on: not listed separately
Assay: Cytotoxicity against mouse RAW264.7 cells assessed as cell viability at 20 uM incubated for 24 hrs by CCK8 assay relative to control
Type: toxicity, cell-based
Settings: read-out: Activity

SMILES | viability at 24 h, 20 µM [%]
C=C1C(=O)O[C@]2(C)CC[C@@H]1C[C@H](OC(C)=O)[C@@]1(C)CC[C@H](O1)C(=C)CC[C@H]2OC(C)=O [GRANOSOLIDE B] | 102
C=C(C(=O)OC)[C@@H]1CC[C@@](C)(O)[C@@H](OC(C)=O)CC/C(C)=C/C/C=C(\C)[C@H](O)C1 | 89.2
C=C1C(=O)O[C@]2(C)CC[C@@H]1C[C@@H]1O[C@@]1(C)CC/C=C(\C)CC[C@H]2OC(C)=O | 89

Tested on: Mus musculus
Assay: Antiinflammatory activity against DSS-induced ulcerative colitis C57BL/6J mouse model assessed as increase in […] protein level in colon at 15 mg/kg, po administered for 8 days by Western blot analysis
Type: functional, organism-based
Settings: time 8.0 day

SMILES | Activity
C=C1C(=O)O[C@]2(C)CC[C@@H]1C[C@@H]1O[C@@]1(C)CC/C=C(\C)CC[C@H]2OC(C)=O | Active

Tested on: RAW264.7
Assay: Antiinflammatory activity in mouse RAW264.7 cells assessed as inhibition of LPS-induced NO production incubated for 24 hrs
Type: functional, cell-based
Settings: RAW264.7, 24 h

SMILES | IC50 [nM]
C=C1C(=O)O[C@]2(C)CC[C@@H]1C[C@@H]1O[C@@]1(C)CC/C=C(\C)CC[C@H]2OC(C)=O | 1150

Tested on: RAW264.7
Assay: Antiinflammatory activity in LPS-induced mouse RAW264.7 cells assessed as reduction in IL-6 mRNA expression level at 20 uM by qRT-PCR analysis
Type: functional, cell-based
Settings: not given

SMILES | Activity
C=C1C(=O)O[C@]2(C)CC[C@@H]1C[C@@H]1O[C@@]1(C)CC/C=C(\C)CC[C@H]2OC(C)=O | Active

Tested on: Mus musculus
Assay: Antiinflammatory activity against DSS-induced ulcerative colitis C57BL/6J mouse model assessed as reduction in Ccl2 mRNA expression level in colon at 15 mg/kg, po administered for 8 days by qRT-PCR analysis
Type: functional, organism-based
Settings: time 8.0 day

SMILES | Activity
C=C1C(=O)O[C@]2(C)CC[C@@H]1C[C@@H]1O[C@@]1(C)CC/C=C(\C)CC[C@H]2OC(C)=O | Active

Tested on: Mus musculus
Assay: Antiinflammatory activity against DSS-induced ulcerative colitis C57BL/6J mouse model assessed as reduction in IL-1beta mRNA expression level in colon at 15 mg/kg, po administered for 8 days by qRT-PCR analysis
Type: functional, organism-based
Settings: time 8.0 day

SMILES | Activity
C=C1C(=O)O[C@]2(C)CC[C@@H]1C[C@@H]1O[C@@]1(C)CC/C=C(\C)CC[C@H]2OC(C)=O | Active

Tested on: Mus musculus
Assay: Antiinflammatory activity against DSS-induced ulcerative colitis C57BL/6J mouse model assessed as reduction in H and E histopathological score at 15 mg/kg, po administered for 8 days by H and E staining based analysis
Type: functional, organism-based
Settings: time 8.0 day

SMILES | Activity
C=C1C(=O)O[C@]2(C)CC[C@@H]1C[C@@H]1O[C@@]1(C)CC/C=C(\C)CC[C@H]2OC(C)=O | Active
